Reference: patent US12325701B2, “YKL-40 inhibitors and their therapeutic” (Molecure S.A., priority 2022, dated 2025)
pIC50: −log10 of the molar value. Counter-ions that a name gives are not always drawn.

molecular target: YKL-40 (YKL-40: heparan sulfate interaction) (Homo sapiens (Human), UniProt P36222); experiment: YKL-40:HS assay, heparan sulfate interference AlphaScreen; conditions: read-out: YKL-40:HS, IC50/max % inh (max % inh)
Sequence (P36222 22-383): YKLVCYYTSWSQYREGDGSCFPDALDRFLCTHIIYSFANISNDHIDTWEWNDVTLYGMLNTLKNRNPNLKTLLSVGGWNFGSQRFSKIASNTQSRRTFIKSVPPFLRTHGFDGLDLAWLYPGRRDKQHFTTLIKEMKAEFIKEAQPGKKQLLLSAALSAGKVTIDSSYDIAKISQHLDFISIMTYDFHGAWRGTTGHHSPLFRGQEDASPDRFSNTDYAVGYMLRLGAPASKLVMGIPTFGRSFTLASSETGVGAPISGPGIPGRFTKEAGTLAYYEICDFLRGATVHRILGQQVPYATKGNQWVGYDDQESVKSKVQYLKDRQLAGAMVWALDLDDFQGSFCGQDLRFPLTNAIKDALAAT
Protocol: Positive and negative control wells received just 8 uL of MST buffer containing 2% DMSO without inhibitor in the 2nd step (ii). In addition, negative control received just 8 uL of MST buffer containing 0% DMSO without YKL-40-histag in the 3nd step (iii). Finally, the plate luminescence was excited at 680 nm and the emission read at 520-620 nm using the AlphaScreen module in the The Spark™ 1 μM multimode microplate reader (Tecan Trading AG, Mannedorf, Switzerland). Inhibition percentage and IC50 values were determined using GraphPad Prism 7.0 software (GraphPad Software, San Diego, CA, USA).

| Compound | inhibition [%] |
| --- | --- |
| Cc1cnc(N2CCC(N3C[C@H](C)OC[C@@H]3Cc3ccc(Cl)cc3)CC2)s1 [Compound 185, (2S,5S)-5-(4-chlorobenzyl)-2-methyl-4-(1-(5-methylthiazol-2-yl)piperidin-4-yl)morpholine 2,2,2-trifluoroacetate] | 36 |
| Cc1nc(N2CCC(N3C[C@H](C)OC[C@@H]3Cc3ccc(Cl)cc3)CC2)sc1C [Compound 183, (2S,5S)-5-(4-chlorobenzyl)-4-(1-(4,5-dimethylthiazol-2-yl)piperidin-4-yl)-2-methylmorpholine 2,2,2-trifluoroacetate] | 53 |
| CN1C[C@H](Cc2ccc(Cl)cc2)N(C2CCN(c3cc(Cl)ccn3)CC2)C[C@@H]1Cn1ccnc1 [Compound 82, (2R,5S)-2-((1H-imidazol-1-yl)methyl)-5-(4-chlorobenzyl)-4-(1-(4-chloropyridin-2-yl)piperidin-4-yl)-1-methylpiperazine hydrochloride] | 75 |
| CNC(=O)CN1C[C@H](Cc2ccc(Cl)cc2)N(C2CCN(c3ccccn3)CC2)C[C@@H]1CC(C)C [Compound 95, 2-((2S,5S)-5-(4-chlorobenzyl)-2-isobutyl-4-(1-(pyridin-2-yl)piperidin-4-yl)piperazin-1-yl)-N-methylacetamide 2,2,2-trifluoroacetate] | 85 |
| CN1C[C@H](Cc2ccc(Cl)cc2)N(C2CCN(c3cc(Cl)ccn3)CC2)C[C@@H]1CN1CCOCC1 [Compound 51, 4-(((2S,5S)-5-(4-chlorobenzyl)-4-(1-(4-chloropyridin-2-yl)piperidin-4-yl)-1-methyl-piperazin-2-yl)methyl)morpholine hydrochloride] | 52 |
| CN1C[C@H](Cc2ccc(Cl)cc2)N(C2CCN(c3ccccn3)CC2)C[C@@H]1Cc1ccc(Cl)cc1 [Compound 63, (2S,5S)-2,5-bis(4-chlorobenzyl)-1-methyl-4-(1-(pyridin-2-yl)piperidin-4-yl)piperazine 2,2,2-trifluoroacetate] | 85 |
| Cc1ccnc(N2CCC(N3C[C@H](C)OC[C@@H]3Cc3ccc(Cl)cc3)CC2)c1F [Compound 112, (2S,5S)-5-(4-chlorobenzyl)-4-(1-(3-fluoro-4-methylpyridin-2-yl)piperidin-4-yl)-2-methylmorpholine 2,2,2-trifluoroacetate] | 30 |
| CNC(=O)CN1C[C@H](Cc2ccc(Cl)cc2)N(C2CCN(c3ccccn3)CC2)C[C@@H]1C(C)C [Compound 106, 2-((2S,5S)-5-(4-chlorobenzyl)-2-isopropyl-4-(1-(pyridin-2-yl)piperidin-4-yl)piperazin-1-yl)-N-methylacetamide 2,2,2-trifluoroacetate] | 27 |

molecular target: human YKL-40 (Homo sapiens (Human), UniProt P36222); experiment: Human YKL-40 direct binding assay based on MicroScale Thermophoresis (MST); conditions: by MST and competitive AlphaScreen for chitin binding site; depends on ligand length, sulphation, Mg2+
Sequence (P36222 22-383): as above

| Compound | binding affinity to YKL-40 (in words) |
| --- | --- |
| heparin sodium salt | high nM affinity |

molecular target: YKL-40 (YKL-40-histag, chitin binding site) (Homo sapiens (Human), UniProt P36222); experiment: YKL-40:4 assay, competitive chitin binding site AlphaScreen; conditions: not given
Sequence (P36222 22-383): as above

| Compound | pIC50 |
| --- | --- |
| COC(=O)c1cccnc1N1CCC(N2C[C@H](C)OC[C@@H]2Cc2ccc(Cl)cc2)CC1 [Compound 117, methyl 2-(4-((2S,5S)-5-(4-chlorobenzyl)-2-methylmorpholino)piperidin-1-yl)nicotinate 2,2,2-trifluoroacetate] | < 5.00 |
